From US20240002374A1, “5-MEMBERED HETEROARYLAMINOSULFONAMIDES FOR TREATING CONDITIONS MEDIATED BY DEFICIENT CFTR ACTIVITY” (Genzyme Corporation, priority 2019, published 2024)

Target: T1, CFTR (primary human bronchial epithelial cells from a ΔF508 homozygous CF donor, CF-HBE cells) (Homo sapiens, UniProt P13569, DEL508-508)
T1 construct: Primary human bronchial epithelial cells from a ΔF508 homozygous CF donor; host or cells: primary human bronchial epithelial cells (CF-HBE) from a ΔF508 homozygous CF donor
Assay: TECC24 recording of CFTR-mediated transepithelial chloride transport (TECC24 AUC fold over DMSO @ 3 μM)
Format: cell-based
Conditions: 3 uM test agent; CF-HBE cells (ΔF508 homozygous) incubated 48 h; ratio of test agent AUC of forskolin-stimulated IEQ to vehicle (DMSO) AUC
Description: Example 510: TECC24 AUC Fold Over DMSO @ 3 μM
The effects of a test agent on CFTR-mediated transepithelial chloride transport was measured using TECC24 recording analysis. Test agents were solubilized in DMSO. Solubilized test agents were mixed with incubation medium containing DMEM/F12, Ultroser G (2%; Crescent Chemical, catalog #67042), Hyclone Fetal Clone H (2%; GE Healthcare, catalog #SH30066.02), bovine brain extract (0.25%; Lonza, catalog #CC-4098), insulin (2.5 μg/mL), IL-13 (10 ng/mL), hydrocortisone (20 nM), transferrin (2.5 μg/mL), triiodothyronine (500 nM), ethanolamine (250 nM), epinephrine (1.5 μM), phosphoethanolamine (250 nM), and retinoic acid (10 nM). Primary human bronchial epithelial cells from a ΔF508 homozygous CF donor (CF-HBE cells; from University of North Carolina Cystic Fibrosis Tissue Procurement Center), grown on Transwell HTS 24-well cell culture inserts (Costar, catalog #3378), were exposed to test agents or controls dissolved in incubation medium. The CF-HBE cells were cultured at 36.5° C. for 48 h before TECC24 recordings were performed in the presence or absence of test agent, a positive control or vehicle (DMSO).
Following incubation, the transwell cell culture inserts containing the test agent or control-treated CF-HBE cells were loaded onto a TECC24 apparatus (TECC v7 or MTECC v2; EP Design) to record the transepithelial voltage (VT) and resistance (TEER) using 4 AgCl electrodes per well configured in current-clamp mode. The apical and basolateral bath solutions both contained (in mM) 140 NaCl, 5 KCl, 2 CaCl2), 1 MgCl2, 10 Hepes, and 10 glucose (adjusted to pH 7.4 with NaOH) […]. To inhibit basal Na+ absorption, the ENaC inhibitor benzamil (10 μM) was added to the bath. Then, the adenylate cyclase activator, forskolin (10 μM), was added to the bath to activate CFTR. The forskolin-stimulated Cl− transport was halted by addition of bumetanide (20 μM), an inhibitor of the basolateral chloride co-transporter NKCC1, to the bath to confirm that the detected signal was chloride dependent. VT and TEER recordings were digitally acquired at routine intervals using TECC or MTECC software (EP Design). VT and TEER were transformed into equivalent transepithelial Cl− current (IEQ), and the Area Under the Curve (AUC) of the IEQ time course between forskolin and bumetanide addition is generated using Excel (Microsoft). Efficacy is expressed as the ratio of the test agent AUC divided by vehicle AUC. EC50s based on AUC are generated using the non-linear regression log(agonist) vs. response function in Prism software (GraphPad) with Hill Slope fixed=1.
If a test agent increased the AUC of the forskolin-stimulated IEQ relative to vehicle in CF-HBE cells, and this increase was inhibited by bumetanide, then the test agent was considered a CFTR corrector.

T1 sequence (P13569 with tags, fused parts or gaps DEL508-508): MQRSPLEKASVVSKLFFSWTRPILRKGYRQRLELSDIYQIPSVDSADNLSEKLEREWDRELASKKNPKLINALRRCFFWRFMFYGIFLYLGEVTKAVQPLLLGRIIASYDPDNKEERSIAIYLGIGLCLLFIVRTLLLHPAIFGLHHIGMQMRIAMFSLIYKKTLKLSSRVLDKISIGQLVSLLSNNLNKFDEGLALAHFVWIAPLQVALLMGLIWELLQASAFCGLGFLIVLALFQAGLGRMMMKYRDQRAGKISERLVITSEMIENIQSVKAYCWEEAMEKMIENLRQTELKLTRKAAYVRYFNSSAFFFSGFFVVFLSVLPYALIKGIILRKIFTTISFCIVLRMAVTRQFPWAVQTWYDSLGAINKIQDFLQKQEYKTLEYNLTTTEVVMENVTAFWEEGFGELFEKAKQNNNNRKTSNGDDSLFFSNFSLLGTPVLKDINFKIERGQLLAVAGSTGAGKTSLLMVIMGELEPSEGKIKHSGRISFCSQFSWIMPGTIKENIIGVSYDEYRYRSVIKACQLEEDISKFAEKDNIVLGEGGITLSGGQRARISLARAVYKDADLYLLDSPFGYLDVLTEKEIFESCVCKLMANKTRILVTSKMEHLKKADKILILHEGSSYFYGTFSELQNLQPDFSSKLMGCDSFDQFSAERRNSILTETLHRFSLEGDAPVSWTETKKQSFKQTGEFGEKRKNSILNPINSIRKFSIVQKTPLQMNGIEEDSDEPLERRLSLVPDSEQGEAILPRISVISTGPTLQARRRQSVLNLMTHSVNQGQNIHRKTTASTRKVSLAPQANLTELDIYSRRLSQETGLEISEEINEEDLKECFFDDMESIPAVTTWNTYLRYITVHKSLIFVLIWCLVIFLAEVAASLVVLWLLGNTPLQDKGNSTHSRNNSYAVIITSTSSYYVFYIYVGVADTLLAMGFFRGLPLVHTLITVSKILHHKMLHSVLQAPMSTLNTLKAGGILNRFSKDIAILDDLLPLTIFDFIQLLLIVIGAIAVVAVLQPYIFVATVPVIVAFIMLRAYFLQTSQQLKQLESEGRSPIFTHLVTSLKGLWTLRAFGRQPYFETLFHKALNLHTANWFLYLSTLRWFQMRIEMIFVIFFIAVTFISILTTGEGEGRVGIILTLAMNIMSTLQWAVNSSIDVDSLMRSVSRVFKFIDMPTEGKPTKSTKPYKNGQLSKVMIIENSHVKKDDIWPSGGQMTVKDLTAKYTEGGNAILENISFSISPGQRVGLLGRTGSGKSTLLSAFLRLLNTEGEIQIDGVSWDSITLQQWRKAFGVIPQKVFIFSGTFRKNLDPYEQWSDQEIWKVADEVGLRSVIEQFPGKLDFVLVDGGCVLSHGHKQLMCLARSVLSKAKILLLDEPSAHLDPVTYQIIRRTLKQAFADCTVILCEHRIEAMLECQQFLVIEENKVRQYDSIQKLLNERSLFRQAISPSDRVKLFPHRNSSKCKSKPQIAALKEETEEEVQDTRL

TECC AUC vs. DMSO @ 3 uM, B (“B” refers to AUC 2-5):
Cc1nn(C)cc1S(=O)(=O)Nc1nc(-c2ccccc2C(C)C)c(-c2cccc([C@H]3CC[C@H](OC(F)(F)F)C3)c2)s1 [Example 46A2, N-(4-(2-Isopropylphenyl)-5-(3-((1S,3S)-3-(trifluoromethoxy)cyclopentyl)phenyl)thiazol-2-yl)-1,3-dimethyl-1H-pyrazole-4-sulfonamide]
Cc1cccc(C)c1-c1nc(NS(=O)(=O)c2cccc([S+](C)[O-])c2)sc1-c1cc(F)cc(OCCC(C)(C)C)c1 (centres unmarked) [Example 259, N-[5-[3-(3,3-dimethylbutoxy)-5-fluorophenyl]-4-(2,6-dimethylphenyl)-1,3-thiazol-2-yl]-3-methylsulfinylbenzenesulfonamide]
Cc1cccc(C)c1-c1nc(NS(=O)(=O)c2ccccc2)sc1-c1cc(F)cc(OCCC(C)(C)C)c1 [Example 17, N-(5-(3-(3,3-Dimethylbutoxy)-5-fluorophenyl)-4-(2,6-dimethylphenyl)thiazol-2-yl)benzenesulfonamide]
CC(C)c1ccccc1-c1nc(NS(=O)(=O)c2cccc(N)c2F)sc1N1CCOC2(CCC(C)(C)C2)C1 (centres unmarked) [Example 39, 3-Amino-N-(5-(2,2-dimethyl-6-oxa-9-azaspiro[4.5]decan-9-yl)-4-(2-isopropylphenyl)thiazol-2-yl)-2-fluorobenzenesulfonamide]

TECC AUC vs. DMSO @ 3 uM, C (“C” refers to AUC < 2):
O=S(=O)(Nc1nc(-c2ccccc2C(F)(F)F)c(-c2cccc([C@@H]3CC[C@H](OC(F)(F)F)C3)c2)s1)c1ccccc1 (single isomer, unassigned) [Example 44B2]
Cc1nn(C)cc1S(=O)(=O)Nc1nc(-c2ccccc2C(C)C)c(-c2cccc([C@H]3CC[C@@H](OC(F)(F)F)C3)c2)s1 [Example 46A1, N-(4-(2-Isopropylphenyl)-5-(3-((1S,3R)-3-(trifluoromethoxy)cyclopentyl)phenyl)thiazol-2-yl)-1,3-dimethyl-1H-pyrazole-4-sulfonamide]
Cc1nn(C)cc1S(=O)(=O)Nc1nc(-c2ccccc2C(C)C)c(-c2cccc([C@@H]3CC[C@@H](OC(F)(F)F)C3)c2)s1 [Example 46B2, N-(4-(2-Isopropylphenyl)-5-(3-((1R,3R)-3-(trifluoromethoxy)cyclopentyl)phenyl)thiazol-2-yl)-1,3-dimethyl-1H-pyrazole-4-sulfonamide]

TECC AUC vs. DMSO @ 3 uM, A (“A” refers to AUC > 5):
COC(=O)C1CCCC(Nc2cccc(S(=O)(=O)Nc3nc(-c4c(C)cccc4C)c(-c4cccc(OCCC(C)(C)C)c4)s3)n2)C1 (centres unmarked) [Example 435, methyl 3-[[6-[[5-[3-(3,3-dimethylbutoxy)phenyl]-4-(2,6-dimethylphenyl)-1,3-thiazol-2-yl]sulfamoyl]pyridin-2-yl]amino]cyclohexane-1-carboxylate]
Cc1cccc(OC(C)C)c1-c1nc(NS(=O)(=O)c2cccc(N(C)C)n2)sc1-c1cccc(OCCC(C)(C)C)c1 [Example 329, 6-(dimethylamino)-N-[5-[3-(3,3-dimethylbutoxy)phenyl]-4-(2-methyl-6-propan-2-yloxyphenyl)-1,3-thiazol-2-yl]pyridine-2-sulfonamide]
CNc1cccc(S(=O)(=O)Nc2nc(-c3c(C)cccc3C)c(-c3cccc(OCCC(C)(C)C)c3)s2)c1 [Example 27, N-(5-(3-(3,3-Dimethylbutoxy)phenyl)-4-(2,6-dimethylphenyl)thiazol-2-yl)-3-(methylamino)benzenesulfonamide]
Cc1cccc(C(F)(F)F)c1-c1nc(NS(=O)(=O)c2cccc(N)c2)sc1-c1cccc(OCCC(C)(C)C)c1 [Example 14, 3-Amino-N-(5-(3-(3,3-dimethylbutoxy)phenyl)-4-(2-methyl-6-(trifluoromethyl)phenyl)thiazol-2-yl)benzenesulfonamide]
Cc1cccc(C)c1-c1nc(NS(=O)(=O)c2cccc(-n3cccn3)c2)sc1-c1cccc(OC2CCC(C)(C)C2)c1 (centres unmarked) [Example 28, N-(5-(3-((3,3-Dimethylcyclopentyl)oxy)phenyl)-4-(2,6-dimethylphenyl)thiazol-2-yl)-3-(1H-pyrazol-1-yl)benzenesulfonamide]
Cc1cccc(C)c1-c1nc(NS(=O)(=O)c2cccc(N)c2F)sc1N1CCOC2(CCC(C)(C)C2)C1 (centres unmarked) [Example 38, 3-Amino-N-(5-(2,2-dimethyl-6-oxa-9-azaspiro[4.5]decan-9-yl)-4-(2,6-dimethylphenyl)thiazol-2-yl)-2-fluorobenzenesulfonamide]
Cc1cccc(C)c1-c1nc(NS(=O)(=O)c2cccc(-c3ccn[nH]3)c2)sc1-c1cccc(OC2CCC(C)(C)C2)c1 (centres unmarked) [Example 29, N-(5-(3-((3,3-Dimethylcyclopentyl)oxy)phenyl)-4-(2,6-dimethylphenyl)thiazol-2-yl)-3-(1H-pyrazol-5-yl)benzenesulfonamide]
Cc1cccc(C)c1-c1nc(NS(=O)(=O)c2cccc(N(C)C)n2)sc1-c1cccc(OC2CCC(C)(C)C2)c1 (centres unmarked) [Example 358, 6-(dimethylamino)-N-[5-[3-(3,3-dimethylcyclopentyl)oxyphenyl]-4-(2,6-dimethylphenyl)-1,3-thiazol-2-yl]pyridine-2-sulfonamide]
Cc1cccc(C)c1-c1nc(NS(=O)(=O)c2cccc(N(C)C)n2)sc1-c1cccc(OCCC(C)(C)C)c1 [Example 334, 6-(dimethylamino)-N-[5-[3-(3,3-dimethylbutoxy)phenyl]-4-(2,6-dimethylphenyl)-1,3-thiazol-2-yl]pyridine-2-sulfonamide]
Cc1cccc(C)c1-c1nc(NS(=O)(=O)c2ccsc2)sc1-c1cccc(OCC(C)(C)C)c1 [Example 41, N-(4-(2,6-Dimethylphenyl)-5-(3-(neopentyloxy)phenyl)thiazol-2-yl)thiophene-3-sulfonamide]
Cc1cccc(C)c1-c1nc(NS(=O)(=O)c2ccccc2)sc1C1=CC(CC(C)(C)C)OCC1 (centres unmarked) [Example 370, N-[4-(2,6-dimethylphenyl)-5-[6-(2,2-dimethylpropyl)-3,6-dihydro-2H-pyran-4-yl]-1,3-thiazol-2-yl]benzenesulfonamide]
CC(C)c1ccccc1-c1nc(NS(=O)(=O)c2cc(N)ccc2F)sc1-c1ccc(F)c(OCC(F)(F)C(C)(C)C)c1 [Example 26, 5-Amino-N-(5-(3-(2,2-difluoro-3,3-dimethylbutoxy)-4-fluorophenyl)-4-(2-isopropylphenyl)thiazol-2-yl)-2-fluorobenzenesulfonamide]
Cc1cccc(C)c1-c1nc(NS(=O)(=O)c2cccc(S(C)(=O)=O)c2)sc1-c1cc(F)cc(OCCC(C)(C)C)c1 [Example 242, N-[5-[3-(3,3-dimethylbutoxy)-5-fluorophenyl]-4-(2,6-dimethylphenyl)-1,3-thiazol-2-yl]-3-methylsulfonylbenzenesulfonamide]
